Test results: patent US5202315A, “Cephalosporin compounds” (Lucky, Ltd., priority 1989, dated 1993)
In brackets after ≈: the same amount, converted by molar mass.

Legend:
Type in all cases: cell-based
[1] = tested on: Acinetobacter calcoaceticus ATCC 15473; experiment: Antibacterial activity, MIC; conditions: ATCC15473, ATCC 15473, agar two-fold dilution, 37° C., 20 hours, read-out: MIC
Outline: (§1)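 Incubation at 37 °C for 20 h followed inoculation of 2 μl standard strain (10^7 CFU/ml) onto agar carrying the compound. Compound was incorporated into Mueller-Hinton agar as two-fold serial dilutions.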

[2] = tested on: Bacillus cereus ATCC 11778; experiment: Antibacterial activity, MIC; conditions: ATCC11778, ATCC 11778, agar two-fold dilution, 37° C., 20 hours, read-out: MIC
Outline: as §1

[3] = tested on: Bacillus megaterium ATCC 9885; experiment: Antibacterial activity, MIC; conditions: Priestia megaterium, ATCC9885; ATCC 9885; agar two-fold dilution, 37° C., 20 hours; read-out: MIC
Outline: as §1

[4] = tested on: Citrobacter freundii ATCC 8090; experiment: Antibacterial activity, MIC; conditions: ATCC8090, ATCC 8090, agar two-fold dilution, 37° C., 20 hours, read-out: MIC
Outline: as §1

[5] = tested on: Enterobacter aerogenes ATCC 29751; experiment: Antibacterial activity, MIC; conditions: Klebsiella aerogenes, ATCC29751; ATCC 29751; agar two-fold dilution, 37° C., 20 hours; read-out: MIC
Outline: as §1

[6] = tested on: Enterobacter cloacae ATCC 27508; experiment: Antibacterial activity, MIC; conditions: ATCC27508, ATCC 27508, agar two-fold dilution, 37° C., 20 hours, read-out: MIC
Outline: as §1

[7] = tested on: Escherichia coli ATCC 10536; experiment: Antibacterial activity, MIC; conditions: ATCC10536, agar two-fold dilution, 37° C., 20 hours
Outline: as §1

[8] = tested on: Escherichia coli ATCC 25922; experiment: Antibacterial activity, MIC; conditions: ATCC25922, agar two-fold dilution, 37° C., 20 hours
Outline: as §1

[9] = tested on: Klebsiella pneumoniae ATCC 10031; experiment: Antibacterial activity, MIC; conditions: ATCC10031, ATCC 10031, agar two-fold dilution, 37° C., 20 hours, read-out: MIC
Outline: as §1

[10] = tested on: Micrococcus luteus ATCC 9341; experiment: Antibacterial activity, MIC; conditions: ATCC9341, ATCC 9341, agar two-fold dilution, 37° C., 20 hours, read-out: MIC
Outline: as §1

[11] = tested on: Morganella morganii ATCC 8076h; experiment: Antibacterial activity, MIC; conditions: ATCC8076H, agar two-fold dilution, 37° C., 20 hours
Outline: as §1

[12] = tested on: Proteus mirabilis ATCC 25933; experiment: Antibacterial activity, MIC; conditions: ATCC25933, ATCC 25933, agar two-fold dilution, 37° C., 20 hours, read-out: MIC
Outline: as §1

[13] = tested on: Proteus vulgaris ATCC 6059; experiment: Antibacterial activity, MIC; conditions: ATCC6059, ATCC 6059, agar two-fold dilution, 37° C., 20 hours, read-out: MIC
Outline: as §1

[14] = tested on: Providencia rettgeri ATCC 9250; experiment: Antibacterial activity, MIC; conditions: ATCC9250, agar two-fold dilution, 37° C., 20 hours
Outline: as §1

[15] = tested on: Pseudomonas aeruginosa ATCC 10145; experiment: Antibacterial activity, MIC; conditions: ATCC10145, ATCC 10145, agar two-fold dilution, 37° C., 20 hours, read-out: MIC
Outline: as §1

[16] = tested on: Pseudomonas aeruginosa ATCC 25619; experiment: Antibacterial activity, MIC; conditions: ATCC25619, ATCC 25619, agar two-fold dilution, 37° C., 20 hours, read-out: MIC
Outline: as §1

[17] = tested on: Pseudomonas aeruginosa ATCC 27853; experiment: Antibacterial activity, MIC; conditions: ATCC27853, ATCC 27853, agar two-fold dilution, 37° C., 20 hours, read-out: MIC
Outline: as §1

[18] = tested on: Salmonella typhimurium ATCC 14028; experiment: Antibacterial activity, MIC; conditions: Salmonella enterica; ATCC 14028; agar two-fold dilution, 37° C., 20 hours; read-out: MIC
Outline: as §1

[19] = tested on: Serratia marcescens ATCC 27117; experiment: Antibacterial activity, MIC; conditions: ATCC27117, ATCC 27117, agar two-fold dilution, 37° C., 20 hours, read-out: MIC
Outline: as §1

[20] = tested on: Shigella flexneri ATCC 11836; experiment: Antibacterial activity, MIC; conditions: ATCC11836, agar two-fold dilution, 37° C., 20 hours
Outline: as §1

[21] = tested on: Shigella sonnei ATCC 11060; experiment: Antibacterial activity, MIC; conditions: ATCC11060, ATCC 11060, agar two-fold dilution, 37° C., 20 hours, read-out: MIC
Outline: as §1

[22] = tested on: Staphylococcus aureus ATCC 10537; experiment: Antibacterial activity, MIC; conditions: ATCC10537, ATCC 10537, agar two-fold dilution, 37° C., 20 hours, read-out: MIC
Outline: as §1

[23] = tested on: Staphylococcus aureus ATCC 6538p; experiment: Antibacterial activity, MIC; conditions: ATCC6538P, ATCC 6538p, agar two-fold dilution, 37° C., 20 hours, read-out: MIC
Outline: as §1

[24] = tested on: Staphylococcus epidermidis ATCC 12228; experiment: Antibacterial activity, MIC; conditions: ATCC12228, ATCC 12228, agar two-fold dilution, 37° C., 20 hours, read-out: MIC
Outline: as §1

[25] = tested on: Streptococcus faecalis ATCC 29212; experiment: Antibacterial activity, MIC; conditions: Enterococcus faecalis, ATCC29212; ATCC 29212; agar two-fold dilution, 37° C., 20 hours; read-out: MIC
Outline: as §1

Escherichia coli = experiment: Antibacterial activity against clinically isolated strains, MIC; conditions: 38 clinical isolates, broth microdilution test
Klebsiella pneumoniae = experiment: as above; conditions: 10 clinical isolates, broth microdilution test; for MIC90: read-out: MIC 90%
[26] = tested on: Staphylococcus aureus methicillin susceptible; experiment: as above; conditions: methicillin susceptible, 42 clinical isolates, broth microdilution test; for MIC90: read-out: MIC 90%
[27] = tested on: Staphylococcus aureus methicillin resistant; experiment: as above; conditions: methicillin resistant, 7 clinical isolates, broth microdilution test; for MIC90: read-out: MIC 90%
Pseudomonas aeruginosa = experiment: as above; conditions: 54 clinical isolates, broth microdilution test; for MIC90: read-out: MIC 90%

Structure (SMILES)	MIC [1] [µg/mL]	MIC [2] [µg/mL]	MIC [3] [µg/mL]	MIC [4] [µg/mL]	MIC [5] [µg/mL]	MIC [6] [µg/mL]	MIC [7] [µg/mL]	MIC [8] [µg/mL]	MIC [9] [µg/mL]	MIC [10] [µg/mL]	MIC [11] [µg/mL]	MIC [12] [µg/mL]	MIC [13] [µg/mL]	MIC [14] [µg/mL]	MIC [15] [µg/mL]	MIC [16] [µg/mL]	MIC [17] [µg/mL]	MIC [18] [µg/mL]	MIC [19] [µg/mL]	MIC [20] [µg/mL]	other results
CCO/N=C(\C(=O)NC1C(=O)N2C(C(=O)[O-])=C(CSc3nc(N)cc(N)[n+]3N)CSC12)c1nsc(N)n1 (centres unmarked) [Compound I-17]	2 (≈ 3.52 µM)	8 (≈ 14.1 µM)	0.13 (≈ 0.229 µM)	0.063 (≈ 0.111 µM)	0.25 (≈ 0.44 µM)	0.016 (≈ 0.0282 µM)	0.13 (≈ 0.229 µM)	0.13 (≈ 0.229 µM)	0.016 (≈ 0.0282 µM)	0.016 (≈ 0.0282 µM)	0.016 (≈ 0.0282 µM)	0.5 (≈ 0.881 µM)	0.5 (≈ 0.881 µM)	≤ 0.008	4 (≈ 7.05 µM)	0.5 (≈ 0.881 µM)	2 (≈ 3.52 µM)	0.5 (≈ 0.881 µM)	0.25 (≈ 0.44 µM)	0.031 (≈ 0.0546 µM)	MIC [21]: 0.13 µg/mL (≈ 0.229 µM); MIC [22]: 0.5 µg/mL (≈ 0.881 µM); MIC [23]: 0.5 µg/mL (≈ 0.881 µM); MIC [24]: 0.25 µg/mL (≈ 0.44 µM); MIC [25]: 32 µg/mL (≈ 56.4 µM); MIC50 (Escherichia coli): 0.13 µg/mL (≈ 0.229 µM); MIC90 (Escherichia coli): 0.25 µg/mL (≈ 0.44 µM); MIC50 (Klebsiella pneumoniae): 0.25 µg/mL (≈ 0.44 µM); MIC90 (Klebsiella pneumoniae): 0.25 µg/mL (≈ 0.44 µM); MIC50 [26]: 0.5 µg/mL (≈ 0.881 µM); MIC90 [26]: 1 µg/mL (≈ 1.76 µM); MIC50 [27]: 16 µg/mL (≈ 28.2 µM); MIC90 [27]: 64 µg/mL (≈ 113 µM); MIC50 (Pseudomonas aeruginosa): 4 µg/mL (≈ 7.05 µM); MIC90 (Pseudomonas aeruginosa): 8 µg/mL (≈ 14.1 µM)
C#CCO/N=C(\C(=O)NC1C(=O)N2C(C(=O)[O-])=C(CSc3nc(N)cc(N)[n+]3N)CSC12)c1csc(N)n1 (centres unmarked) [Compound I-18]	2 (≈ 3.47 µM)	8 (≈ 13.9 µM)	0.063 (≈ 0.109 µM)	0.063 (≈ 0.109 µM)	0.25 (≈ 0.434 µM)	≤ 0.008	0.13 (≈ 0.225 µM)	0.063 (≈ 0.109 µM)	≤ 0.008	0.013 (≈ 0.0225 µM)	≤ 0.008	0.13 (≈ 0.225 µM)	0.13 (≈ 0.225 µM)	≤ 0.008	4 (≈ 6.94 µM)	0.5 (≈ 0.867 µM)	2 (≈ 3.47 µM)	0.25 (≈ 0.434 µM)	0.13 (≈ 0.225 µM)	0.016 (≈ 0.0277 µM)	MIC [21]: 0.13 µg/mL (≈ 0.225 µM); MIC [22]: 0.25 µg/mL (≈ 0.434 µM); MIC [23]: 0.25 µg/mL (≈ 0.434 µM); MIC [24]: 0.063 µg/mL (≈ 0.109 µM); MIC [25]: 32 µg/mL (≈ 55.5 µM); MIC50 (Escherichia coli): 0.13 µg/mL (≈ 0.225 µM); MIC90 (Escherichia coli): 0.25 µg/mL (≈ 0.434 µM); MIC (Klebsiella pneumoniae): 0.13 µg/mL (≈ 0.225 µM); MIC50 (Klebsiella pneumoniae): 0.13 µg/mL (≈ 0.225 µM); MIC90 (Klebsiella pneumoniae): 0.13 µg/mL (≈ 0.225 µM); MIC50 [26]: 0.25 µg/mL (≈ 0.434 µM); MIC90 [26]: 0.25 µg/mL (≈ 0.434 µM); MIC50 [27]: 128 µg/mL (≈ 222 µM); MIC90 [27]: > 128 µg/mL; MIC50 (Pseudomonas aeruginosa): 4 µg/mL (≈ 6.94 µM); MIC90 (Pseudomonas aeruginosa): 8 µg/mL (≈ 13.9 µM)
